Data: article PMC8274062, “Promising Non-cytotoxic Monosubstituted Chalcones to Target Monoamine Oxidase-B” (ACS Medicinal Chemistry Letters, 2021)
Several values for one entry are separate records, joined by “and”; a condition that tells them apart may be missing. Identical values can stand only once.

Tests used:
[1] = test system: A2780 (human ovarian carcinoma cells); assay: Cell growth assay (trypan blue), A2780; format: cell-based; details: A2780, 72 h of incubation
[2] = test system: HT-29 (human colorectal adenocarcinoma); assay: Cell growth assay (trypan blue), HT-29; format: cell-based; details: HT-29, 72 h of incubation
human recombinant MAO-A = target: T1, human recombinant MAO-A (Homo sapiens, UniProt P21397); assay: Monoamine oxidase inhibition assay (Amplex Red, kynuramine), MAO-A; details: read-out: Ki MAO-A; kynuramine substrate, pH 7.4, 37°C
T1 sequence (P21397 1-527): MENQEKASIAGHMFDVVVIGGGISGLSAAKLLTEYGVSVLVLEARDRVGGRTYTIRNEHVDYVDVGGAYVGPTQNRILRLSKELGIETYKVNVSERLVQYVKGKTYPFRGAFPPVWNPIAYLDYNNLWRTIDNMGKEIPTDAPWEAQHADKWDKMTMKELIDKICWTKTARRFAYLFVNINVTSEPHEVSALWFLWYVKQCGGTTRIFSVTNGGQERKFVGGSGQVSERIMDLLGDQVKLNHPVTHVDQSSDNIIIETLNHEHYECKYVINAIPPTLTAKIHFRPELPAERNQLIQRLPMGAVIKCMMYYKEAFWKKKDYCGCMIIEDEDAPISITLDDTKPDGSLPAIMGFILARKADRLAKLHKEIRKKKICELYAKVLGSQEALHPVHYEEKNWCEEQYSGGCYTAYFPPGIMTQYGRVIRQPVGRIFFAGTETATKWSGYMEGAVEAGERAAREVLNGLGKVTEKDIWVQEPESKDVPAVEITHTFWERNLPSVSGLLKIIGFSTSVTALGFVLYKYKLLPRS
Protocol: (§1) Materials. Human recombinant MAO-A and MAO-B were expressed in baculovirus infected BT1 cells (5 mg/ml) and horseradish peroxidases were purchased from Fluka-Sigma-Aldrich s.r.l. (Italy). A Cary-Eclipse fluorimeter (Varian Inc., Palo Alto, CA, USA) was employed for fluorescence measurements.
(§2) Monoamine oxidase inhibition assay. Monoamine oxidase activity was determined by measuring H2O2 generation rate by a peroxidase-coupled continuous assay, using the Amplex Red reagent as fluorogenic substrate for horseradish peroxidase.1 All experiments were carried out as previously reported,2 in 100 mM potassium phosphate buffer, 0.1 mM EDTA, pH 7.4 and at 37°C. The assays were carried out in a final volume of 800 L, in the presence of Amplex Red (100 M) and horseradish peroxidase type II (5 UmL -1), and using kynuramine (20-1200 M) as common MAO-A and MAO-B substrate. h-MAO-A and h-MAO-B concentration in the assay solutions were 3 and 6 g/ml, respectively. After 5 min of pre-incubation of the enzyme with the compounds, substrate was added and the initial rates of reaction were recorded. The rates of the enzymatic reaction were determined by detecting the increase in the fluorescence intensity at
(§3) The generation rate of H2O2 was calculated from the increase of fluorescence intensity by means of calibration curves obtained using standard solution of H2O, in
M of maxima concentrations tested).
(§4) Steady state kinetic parameters (V max and K m) were calculated by fitting the Michaelis-Menten equation to the experimental data (initial velocity vs substrate concentrations), with Sigma Plot software, version 9.0 (Jandel Scientific, San Rafael, CA, USA). The mode of inhibition was determined by global fit analysis (GraphPad 9.0 software, GraphPad Software, San Diego, CA,
(§5) USA) of the initial velocity (V0) vs substrate concentration plots, at various inhibitor concentrations. The competitive, mixed, non-competitive and uncompetitive inhibition models were analysed and the fit giving the highest r2 value was chosen for the calculation of inhibition
(§6) compounds, experimental data are presented as double reciprocal Lineweaver-Burk plots (1/v vs 1/S). Ki values are expressed as mean ±S.D. All experiments were carried out at least in

human recombinant MAO-B = target: T2, human recombinant MAO-B (Homo sapiens, UniProt P27338); assay: Monoamine oxidase inhibition assay (Amplex Red, kynuramine), MAO-B; details: for mode of inhibition: Lineweaver–Burk double-reciprocal plots, MAO-B; for Ki: read-out: Ki MAO-B, kynuramine substrate, pH 7.4, 37°C
T2 sequence (P27338 1-520): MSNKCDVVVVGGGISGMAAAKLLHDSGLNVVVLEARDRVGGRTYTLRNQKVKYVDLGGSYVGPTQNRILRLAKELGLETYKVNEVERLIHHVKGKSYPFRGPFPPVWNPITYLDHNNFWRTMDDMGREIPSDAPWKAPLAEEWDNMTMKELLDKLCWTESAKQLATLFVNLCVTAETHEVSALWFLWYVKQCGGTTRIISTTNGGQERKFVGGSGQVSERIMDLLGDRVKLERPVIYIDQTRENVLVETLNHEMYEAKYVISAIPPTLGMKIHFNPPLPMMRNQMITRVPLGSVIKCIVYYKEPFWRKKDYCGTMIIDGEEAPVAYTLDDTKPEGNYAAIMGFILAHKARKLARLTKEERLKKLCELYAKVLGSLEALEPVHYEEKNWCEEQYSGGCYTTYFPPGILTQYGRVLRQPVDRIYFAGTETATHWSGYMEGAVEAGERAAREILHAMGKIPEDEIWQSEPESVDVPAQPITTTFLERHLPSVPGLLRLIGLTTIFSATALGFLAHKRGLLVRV
Protocol: as §1, §2, §3
M of maxima concentrations tested).
as §4, §5, §6

[3] = test system: Met-5A (human mesothelial cells); assay: Cell growth assay (trypan blue), Met-5A; format: cell-based; details: nontumorigenic Met-5A mesothelial cells
From the text: fluorescence measurements.
prepared in dimethylsulfoxide.
performed to determine cell viability.
µM of maxima concentrations tested).
The mode of inhibition was […]

[4] = test system: recombinant MAO-A or MAO-B; assay: Reversibility assay (dialysis/ultrafiltration); format: biochemical, human; details: incubated at 4 times the Ki value for 20 min before dialysis
MAO-B = test system: MAO-B; parameters: method as in PMID 26337020, PMID 28577983; details: previously tested; ref [19],[23]; cited from earlier work

Row | SMILES | GI50 [1] [µM] | GI50 [2] [µM] | Ki (human recombinant MAO-A) [µM] | mode of inhibition (human recombinant MAO-B) | Ki (human recombinant MAO-B) | GI50 [3] [µM] | MAO activity after dialysis (reversibility) [4] | inhibitory potency on MAO-B (MAO-B)
1 | O=C(/C=C/c1ccccc1[N+](=O)[O-])c1ccccc1 [Compound 1] | > 20 | > 20 | 2.2 | competitive behavior | 0.4 ± 0.08 µM | – | – | –
2 | O=C(/C=C/c1cccc([N+](=O)[O-])c1)c1ccccc1 [Compound 2] | 2.8 ± 0.3 | 5 ± 1.8 | 2.5 | – | 0.071 ± 0.011 µM | – | – | –
3 | O=C(/C=C/c1ccc([N+](=O)[O-])cc1)c1ccccc1 [Compound 3] | 7.5 ± 1.3 | 15.5 ± 3.9 | – | – | – | – | – | –
4 | O=C(/C=C/c1ccccc1C(F)(F)F)c1ccccc1 [Compound 4] | 7.2 ± 0.3 | 11.7 ± 3.6 | – | – | – | – | – | –
5 | O=C(/C=C/c1cccc(C(F)(F)F)c1)c1ccccc1 [Compound 5] | 10 ± 0.4 | 12.7 ± 3.2 | – | – | – | – | – | –
6 | O=C(/C=C/c1ccc(C(F)(F)F)cc1)c1ccccc1 [Compound 6] | 14 ± 0.9 | 12.2 ± 0.4 | – | – | – | – | – | –
7 | COc1ccccc1/C=C/C(=O)c1ccccc1 [Compound 7] | 13.8 ± 0.3 | 13 ± 4 | – | – | – | – | – | –
8 | COc1cccc(/C=C/C(=O)c2ccccc2)c1 [Compound 8] | 13.2 ± 2.2 | 14.5 ± 0.7 | – | – | – | – | – | –
9 | COc1ccc(/C=C/C(=O)c2ccccc2)cc1 [Compound 9] | 14.4 ± 3.5 | 16.7 ± 2.5 | – | – | – | – | – | –
10 | O=C(/C=C/c1ccccc1)c1ccccc1[N+](=O)[O-] [Compound 10] | 5.8 ± 0.8 | 8.3 ± 1.4 | – | – | – | – | – | –
11 | O=C(/C=C/c1ccccc1)c1cccc([N+](=O)[O-])c1 [Compound 11] | 4.3 ± 1.5 | 9 ± 0.1 | – | – | – | – | – | –
12 | O=C(/C=C/c1ccccc1)c1ccccc1C(F)(F)F [Compound 12] | 5.8 ± 2.9 | 10.8 ± 0.4 | – | – | – | – | – | –
13 | O=C(/C=C/c1ccccc1)c1cccc(C(F)(F)F)c1 [Compound 13] | > 20 | > 20 | 4.6 | competitive mode of inhibition | 0.005 ± 0.0005 µM | > 20 | fully recovered | –
14 | O=C(/C=C/c1ccccc1)c1ccc(C(F)(F)F)cc1 [Compound 14] | – | – | 9.2 | competitive behavior | 0.0146 ± 0.0001 µM | – | – | –
15 | COc1ccccc1C(=O)/C=C/c1ccccc1 [Compound 15] | 7.3 ± 1.1 | 14.8 ± 2 | – | – | – | – | – | lower inhibitory potency than for 17
16 | COc1cccc(C(=O)/C=C/c2ccccc2)c1 [Compound 16] | 8 ± 0.1 | 14.7 ± 2.5 | – | – | – | – | – | lower inhibitory potency than for 17
17 | COc1ccc(C(=O)/C=C/c2ccccc2)cc1 [Compound 17] | 6.8 ± 1 | 11.7 ± 3.7 | 13 | – | 0.022 µM and 0.0219 µM | ~11.8 | – | –
18 | O=C(/C=C/c1ccccc1)c1ccccc1 [chalcone] | – | – | 14.6 | competitive behavior | 0.056 ± 0.006 µM | ~7 | – | –
19 | C[C@H](NCc1ccc(OCc2cccc(F)c2)cc1)C(N)=O [safinamide, reference compound] | > 20 | > 20 | – | standard competitive inhibitor | – | > 20 | – | –
